Measured values published in patent US8859580B2 (Boehringer Ingelheim International GmbH, priority 2007, dated 2014).

target: T1, 11β-HSD1 (Homo sapiens, UniProt P28845); experiment: In vitro inhibition of 11β-HSD1, HTRF detection of cortisol generated from cortisone by human liver microsomes; type: biochemical; conditions: 11β-HSD IC50 (nM), 1 hour at 37° C., pH 6.0, NADPH 200 μM, cortisone 80 nM, inhibition relative to carbenoxolone signal
T1 construct: detecting cortisol generated from cortisterone by human liver microsomes; from tissue; host or cells: human liver microsomes
Procedure: Cortisol generated in the reaction is then detected with a competitive immunoassay, involving two HTRF conjugates: cortisol linked to XL665 and anti-cortisol antibody labeled with Europium cryptate. The incubation period for detection reaction was typically 2 hours. […] The ratio of the two emission signals is then calculated (Em665*10000/Em615). […] Each assay also contained a calibration curve with cortisol to transform the fluorescent data into cortisol concentrations. Percent inhibition of each compound was determined relative to the carbenoxolone signal and IC50 curves were generated.

T1 sequence (P28845 whole entry): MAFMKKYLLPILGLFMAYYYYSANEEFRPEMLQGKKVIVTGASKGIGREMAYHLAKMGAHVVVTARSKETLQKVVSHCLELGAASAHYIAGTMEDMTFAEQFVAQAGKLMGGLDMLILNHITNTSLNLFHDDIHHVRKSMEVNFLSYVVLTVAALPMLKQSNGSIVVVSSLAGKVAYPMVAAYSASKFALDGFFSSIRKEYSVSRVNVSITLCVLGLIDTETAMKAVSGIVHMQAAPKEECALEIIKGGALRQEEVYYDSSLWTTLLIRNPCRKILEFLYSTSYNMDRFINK

| SMILES | IC50 |
| --- | --- |
| CC1(C)[C@H]2Cc3c(O)cccc3[C@]1(C)CCN2C(=O)c1ccc2c(c1)NCC(=O)N2 [Example 44, 6-[(2R,6S)-10-Hydroxy-6,11,11-trimethyl-1,2,5,6-tetrahydro-4H-2,6-methano-benzo[d]azocine-3-carbonyl]-3,4-dihydro-1H-quinoxalin-2-one] | 200 nM |
| CC1(C)[C@H]2Cc3c(O)cccc3[C@]1(C)CCN2C(=O)c1ccc2scnc2c1 [Example 45, Benzothiazol-5-yl-[(2R,6S)-10-hydroxy-6,11,11-trimethyl-1,2,5,6-tetrahydro-4H-2,6-methano-benzo[d]azocin-3-yl]-methanone] | 384 nM |
| CC1(C)[C@H]2Cc3c(O)cccc3[C@]1(C)CCN2C(=O)c1ccc2ncsc2c1 [Example 46, Benzothiazol-6-yl-[(2R,6S)-10-hydroxy-6,11,11-trimethyl-1,2,5,6-tetrahydro-4H-2,6-methano-benzo[d]azocin-3-yl]-methanone] | 97 nM |
| CNc1ccc(C(=O)N2CC[C@@]3(C)c4cccc(O)c4C[C@@H]2C3(C)C)cc1 [Example 48, [(2R,6S)-10-Hydroxy-6,11,11-trimethyl-1,2,5,6-tetrahydro-4H-2,6-methano-benzo[d]azocin-3-yl]-(4-methylamino-phenyl)-methanone] | 364 nM |
| CC1(C)[C@H]2Cc3c(O)cccc3[C@]1(C)CCN2C(=O)c1ccc2[nH]ccc2c1 [Example 49, [(2R,6S)-10-Hydroxy-6,11,11-trimethyl-1,2,5,6-tetrahydro-4H-2,6-methano-benzo[d]azocin-3-yl]-(1H-indol-5-yl)-methanone] | 168 nM |
| COC(=O)c1ccc(C(=O)N2CC[C@@]3(C)c4cccc(O)c4C[C@@H]2C3(C)C)cc1 [Example 50, 4-[(2R,6S)-10-Hydroxy-6,11,11-trimethyl-1,2,5,6-tetrahydro-4H-2,6-methano-benzo[d]azocine-3-carbonyl]-benzoic acid methyl ester] | 3000 nM |
| CC12CCN(C(=O)c3ccc4nc[nH]c4c3)C(Cc3ccc(O)cc31)C2 (stereo not shown) [Example 51, (3H-Benzoimidazol-5-yl)-(8-hydroxy-6-methyl-1,2,5,6-tetrahydro-4H-2,6-methano-benzo[d]azocin-3-yl)-methanone] | 629 nM |
| C[C@@H]1[C@H]2Cc3ccc(O)cc3[C@]1(C)CCN2C(=O)c1ccc2nc[nH]c2c1 [Example 52, (3H-Benzoimidazol-5-yl)-[(2R,6R,11S)-8-hydroxy-6,11-dimethyl-1,2,5,6-tetrahydro-4H-2,6-methano-benzo[d]azocin-3-yl]-methanone] | 101 nM |
| C[C@H]1[C@@H]2Cc3ccc(O)cc3[C@@]1(C)CCN2C(=O)c1ccc2nc[nH]c2c1 [Example 53, (3H-Benzoimidazol-5-yl)-[(2S,6S,11R)-8-hydroxy-6,11-dimethyl-1,2,5,6-tetrahydro-4H-2,6-methano-benzo[d]azocin-3-yl]-methanone] | 321 nM |
| C[C@@H]1[C@@H]2Cc3ccc(O)cc3[C@@]1(C)CCN2C(=O)c1ccc2nc[nH]c2c1 [Example 54, (3H-Benzoimidazol-5-yl)-(8-hydroxy-6,11-dimethyl-1,2,5,6-tetrahydro-4H-2,6-methano-benzo[d]azocin-3-yl)-methanone] | 529 nM |
| O=C(c1ccc2nc[nH]c2c1)N1CCC2CC1Cc1ccc(O)cc12 (stereo not shown) [Example 55, (3H-Benzoimidazol-5-yl)-(8-hydroxy-1,2,5,6-tetrahydro-4H-2,6-methano-benzo[d]azocin-3-yl)-methanone] | 746 nM |
| CC1(C)C2Cc3ccc(O)cc3C1(O)CCN2C(=O)c1ccc2nc[nH]c2c1 (stereo not shown) [Example 56, (3H-Benzoimidazol-5-yl)-(6,8-dihydroxy-11,11-dimethyl-1,2,5,6-tetrahydro-4H-4,6-methano-benzo[d]azocin-3-vl)-methanone] | 725 nM |
| CC1(C)C2Cc3ccccc3C1(O)CCN2C(=O)c1ccc2nc[nH]c2c1 (stereo not shown) [Example 57, (3H-Benzoimidazol-5-yl)-(6-hydroxy-11,11-dimethyl-1,2,5,6-tetrahydro-4H-2,6-methano-benzo[d]azocin-3-yl)-methanone] | 137 nM |
| CC12CCN(C(=O)c3ccc4nc[nH]c4c3)C(Cc3ccc(O)cc31)C2(C)C (stereo not shown) [Example 58, (3H-Benzoimidazol-5-yl)-(8-hydroxy-6,11,11-trimethyl-1,2,5,6-tetrahydro-4H-2,6-methano-benzo[d]azocin-3-yl)-methanone] | 62 nM |
| CC12CCN(C(=O)c3ccc4nc[nH]c4c3)C(Cc3cc(O)ccc31)C2(C)C (stereo not shown) [Example 59, (3H-Benzoimidazol-5-yl)-(9-hydroxy-6,11,11-trimethyl-1,2,5,6-tetrahydro-4H-2,6-methano-benzo[d]azocin-3-yl)-methanone] | 36 nM |
| O=C(c1ccc2nc[nH]c2c1)N1CCC2CC1Cc1ccccc12 (stereo not shown) [Example 60, (3H-Benzoimidazol-5-yl)-(1,2,5,6-tetrahydro-4H-2,6-methano-benzo[d]azocin-3-yl)-methanone] | 228 nM |

| SMILES | IC50 |
| --- | --- |
| Cc1ccc2c(c1)C1(C)CCN(C(=O)c3ccc4nc[nH]c4c3)C(C2)C1(C)C (stereo not shown) [Example 69, (3H-Benzoimidazol-5-yl)-(6,8,11,11-tetramethyl-1,2,5,6-tetrahydro-4H-2,6-methano-benzo[d]azocin-3-yl)-methanone] | 105 nM |
| CC12CCN(C(=O)c3ccc4nc[nH]c4c3)C(Cc3ccc(F)cc31)C2(C)C (stereo not shown) [Example 70, (3H-Benzoimidazol-5-yl)-(8-fluoro-6,11,11-trimethyl-1,2,5,6-tetrahydro-4H-2,6-methano-benzo[d]azocin-3-yl)-methanone] | 362 nM |
| COc1cc2c(cc1O)CC1N(C(=O)c3ccc4nc[nH]c4c3)CCC2(C)C1(C)C (stereo not shown) [Example 71, (3H-Benzoimidazol-5-yl)-(9-hydroxy-8-methoxy-6,11,11-trimethyl-1,2,5,6-tetrahydro-4H-2,6-methano-benzo[d]azocin-3-yl)-methanone] | 47 nM |
| COc1cc2c(cc1OC)C1(C)CCN(C(=O)c3ccc4nc[nH]c4c3)C(C2)C1(C)C (stereo not shown) [Example 72, (3H-Benzoimidazol-5-yl)-(8,9-dimethoxy-6,11,11-trimethyl-1,2,5,6-tetrahydro-4H-2,6-methano-benzo[d]azocin-3-yl)-methanone] | 148 nM |
| COc1cc2c(cc1O)C1(C)CCN(C(=O)c3ccc4nc[nH]c4c3)C(C2)C1(C)C (stereo not shown) [Example 73, (3H-Benzoimidazol-5-yl)-(8-hydroxy-9-methoxy-6,11,11-trimethyl-1,2,5,6-tetrahydro-4H-2,6-methano-benzo[d]azocin-3-yl)-methanone] | 88 nM |
| COc1ccc2c(c1)C[C@H]1N(C(=O)c3ccc4nc[nH]c4c3)CC[C@]2(C)C1(C)C [Example 74, (3H-Benzoimidazol-5-yl)-[(2R,6S)-9-methoxy-6,11,11-trimethyl-1,2,5,6-tetrahydro-4H-2,6-methano-benzo[d]azocin-3-yl]-methanone] | 69 nM |
| CC12CCN(C(=O)c3ccc4nc[nH]c4c3)C(Cc3ccc(Cl)cc31)C2(C)C (stereo not shown) [Example 75, (3H-Benzoimidazol-5-yl)-(8-chloro-6,11,11-trimethyl-1,2,5,6-tetrahydro-4H-2,6-methano-benzo[d]azocin-3-yl)-methanone] | 395 nM |
| COc1cccc2c1C[C@H]1N(C(=O)c3ccc4nc[nH]c4c3)CC[C@]2(C)C1(C)C [Example 76, (3H-Benzoimidazol-5-yl)-[(2R,6S)-10-methoxy-6,11,11-trimethyl-1,2,5,6-tetrahydro-4H-2,6-methano-benzo[d]azocin-3-yl]-methanone] | 166 nM |
| CC12CCN(C(=O)c3ccc4nc[nH]c4c3)C(Cc3cccc(O)c31)C2(C)C (stereo not shown) [Example 78, (3H-Benzoimidazol-5-yl)-(7-hydroxy-6,11,11-trimethyl-1,2,5,6-tetrahydro-4H-2,6-methano-benzo[d]azocin-3-yl)-methanone] | 67 nM |
| CC1(C)[C@@H]2Cc3ccc(O)cc3[C@@]1(C)CCN2C(=O)c1ccc2nc[nH]c2c1 [Example 79, (3H-Benzoimidazol-5-yl)-[(2S,6R)-8-hydroxy-6,11,11-trimethyl-1,2,5,6-tetrahydro-4H-2,6-methano-benzo[d]azocin-3-yl]-methanone] | 1370 nM |
| CC1(C)[C@H]2Cc3ccc(O)cc3[C@]1(C)CCN2C(=O)c1ccc2nc[nH]c2c1 [Example 80, (3H-Benzoimidazol-5-yl)-[(2R,6S)-8-hydroxy-6,11,11-trimethyl-1,2,5,6-tetrahydro-4H-2,6-methano-benzo[d]azocin-3-yl]-methanone] | 40 nM |
| Cn1cnc2ccc(C(=O)N3CC[C@@]4(C)c5cccc(O)c5C[C@@H]3C4(C)C)cc21 [Example 81, [(2R,6S)-10-Hydroxy-6,11,11-trimethyl-1,2,5,6-tetrahydro-4H-2,6-methano-benzo[d]azocin-3-yl]-(3-methyl-3H-benzoimidazol-5-yl)-methanone] | 463 nM |
| C[C@@H]1[C@H]2Cc3ccc(C#N)cc3[C@]1(C)CCN2C(=O)c1ccc2nc[nH]c2c1 [Example 84, (2R,6R,11S)-3-(3H-Benzoimidazole-5-carbonyl)-6,11-dimethyl-1,2,3,4,5,6-hexahydro-2,6-methano-benzo[d]azocine-8-carbonitrile] | 139 nM |
| CCCC12CCN(C(=O)c3ccc4nc[nH]c4c3)C(Cc3ccc(O)cc31)C2 (stereo not shown) [Example 88, (3H-Benzoimidazol-5-yl)-(8-hydroxy-6-propyl-1,2,5,6-tetrahydro-4H-2,6-methano-benzo[d]azocin-3-yl)-methanone] | 171 nM |
| CCC12CCN(C(=O)c3ccc4nc[nH]c4c3)C(Cc3ccc(O)cc31)C2(C)C (stereo not shown) [Example 89, (3H-Benzoimidazol-5-yl)-(6-ethyl-8-hydroxy-11,11-dimethyl-1,2,5,6-tetrahydro-4H-2,6-methano-benzo[d]azocin-3-yl)-methanone] | 62 nM |
